Test results published in ChEMBL document CHEMBL1201861, “Genomics of Drug Sensitity in Cancer screening data, Wellcome Trust Sanger Institute”.
pIC50: −log10 of the molar value.

Legend:
Experiment in all cases: cells
Conditions in all cases: Homo sapiens
COLO-824 = format: functional, cell-based
Description: SANGER: Inhibition of human COLO-824 cell growth in a cell viability assay.

CP66-MEL = format: functional, cell-based;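 further: growth inhibition of CP66-MEL cells determined in a cell viability assay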
Description: SANGER: Inhibition of human CP66-MEL cell growth in a cell viability assay.

CTV-1 = format: functional, cell-based;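 further: growth inhibition of the cell line, read out with a cell viability assay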
Description: SANGER: Inhibition of human CTV-1 cell growth in a cell viability assay.

CW-2 = format: functional, cell-based;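 further: growth inhibition of CW-2 cells, read out by a cell viability assay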
Description: SANGER: Inhibition of human CW-2 cell growth in a cell viability assay.

D283 Med = format: functional, cell-based
Description: SANGER: Inhibition of human D-283MED cell growth in a cell viability assay.

DB = format: functional, cell-based
Description: SANGER: Inhibition of human DB cell growth in a cell viability assay.

DEL = format: functional, cell-based;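 further: growth inhibition of the human DEL cell line, read out with a cell viability assay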
Description: SANGER: Inhibition of human DEL cell growth in a cell viability assay.

DMS-79 = format: functional, cell-based;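 further: growth inhibition measured with a cell viability assay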
Description: SANGER: Inhibition of human DMS-79 cell growth in a cell viability assay.

GAK = format: functional, cell-based;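 further: cell growth inhibition read out by a cell viability assay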
Description: SANGER: Inhibition of human GAK cell growth in a cell viability assay.

GI-ME-N = format: functional, cell-based;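 further: growth inhibition of human GI-ME-N cells, read out with a cell viability assay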
Description: SANGER: Inhibition of human GI-ME-N cell growth in a cell viability assay.

HEL = format: functional, cell-based;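 further: growth inhibition of HEL cells, read out with a cell viability assay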
Description: SANGER: Inhibition of human HEL cell growth in a cell viability assay.

HH = format: functional, cell-based
Description: SANGER: Inhibition of human HH cell growth in a cell viability assay.

KALS-1 = format: functional, cell-based;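 further: growth inhibition of KALS-1 cells, determined with a cell viability assay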
Description: SANGER: Inhibition of human KALS-1 cell growth in a cell viability assay.

KINGS-1 = format: functional, cell-based;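 further: cell viability assay measuring suppression of KINGS-1 cell growth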
Description: SANGER: Inhibition of human KINGS-1 cell growth in a cell viability assay.

KLE = format: functional, cell-based;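 further: growth inhibition of human KLE cells, read out with a cell viability assay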
Description: SANGER: Inhibition of human KLE cell growth in a cell viability assay.

KNS-42 = format: functional, cell-based;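 further: growth inhibition of KNS-42 cells, read out with a cell viability assay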
Description: SANGER: Inhibition of human KNS-42 cell growth in a cell viability assay.

KP-N-YS = format: functional, cell-based;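 further: cell viability assay measuring inhibition of cell line growth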
Description: SANGER: Inhibition of human KP-N-YS cell growth in a cell viability assay.

KU812 cell line = format: functional, cell-based;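 further: growth inhibition of KU812 cells, read out with a cell viability assay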
Description: SANGER: Inhibition of human KU812 cell growth in a cell viability assay.

KURAMOCHI = format: functional, cell-based;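 further: growth inhibition of KURAMOCHI cells, read out with a cell viability assay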
Description: SANGER: Inhibition of human KURAMOCHI cell growth in a cell viability assay.

LC-2-ad = format: functional, cell-based;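 further: growth inhibition of human LC-2-ad cells, read out with a cell viability assay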
Description: SANGER: Inhibition of human LC-2-ad cell growth in a cell viability assay.

LOX IMVI = format: functional, cell-based
Description: SANGER: Inhibition of human LOXIMVI cell growth in a cell viability assay.

LU-139 = format: functional, cell-based
Description: SANGER: Inhibition of human LU-139 cell growth in a cell viability assay.

Lu-65 = format: functional, cell-based;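 further: growth inhibition of Lu-65 cancer cells, read out by a cell viability assay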
Description: SANGER: Inhibition of human LU-65 cell growth in a cell viability assay.

MEG-01 = format: functional, cell-based;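 further: growth inhibition of MEG-01 cells, read out by a cell viability assay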
Description: SANGER: Inhibition of human MEG-01 cell growth in a cell viability assay.

MFM-223 = format: functional, cell-based
Description: SANGER: Inhibition of human MFM-223 cell growth in a cell viability assay.

MN-60 = format: functional, cell-based;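 further: growth inhibition of the MN-60 cell line, determined with a cell viability assay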
Description: SANGER: Inhibition of human MN-60 cell growth in a cell viability assay.

MPP-89 = format: functional, cell-based;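 further: growth inhibition of human MPP-89 cells, read out with a cell viability assay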
Description: SANGER: Inhibition of human MPP-89 cell growth in a cell viability assay.

MS-1 = format: functional, cell-based;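 further: growth inhibition of MS-1 cells, read out by cell viability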
Description: SANGER: Inhibition of human MS-1 cell growth in a cell viability assay.

MSTO-211H = format: functional, cell-based
Description: SANGER: Inhibition of human MSTO-211H cell growth in a cell viability assay.

MZ1-PC = format: functional, cell-based;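 further: cell viability assay measuring growth inhibition of human MZ1-PC cells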
Description: SANGER: Inhibition of human MZ1-PC cell growth in a cell viability assay.

Mo = format: functional, cell-based
Description: SANGER: Inhibition of human Mo-T cell growth in a cell viability assay.

NB10 = format: functional, cell-based;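 further: growth inhibition of NB10 cells, read out by a cell viability assay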
Description: SANGER: Inhibition of human NB10 cell growth in a cell viability assay.

NB5 = format: functional, cell-based;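 further: growth inhibition of NB5 cells, read out as cell viability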
Description: SANGER: Inhibition of human NB5 cell growth in a cell viability assay.

NCI-H1092 = format: functional, cell-based;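 further: cell growth inhibition measured with a cell viability assay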
Description: SANGER: Inhibition of human NCI-H1092 cell growth in a cell viability assay.

NCI-H1648 = format: functional, cell-based;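 further: cell viability assay measuring inhibition of NCI-H1648 cell growth, from the Sanger screening data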
Description: SANGER: Inhibition of human NCI-H1648 cell growth in a cell viability assay.

NCI-H1770 = format: functional, cell-based;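 further: growth inhibition of NCI-H1770 cells determined with a viability readout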
Description: SANGER: Inhibition of human NCI-H1770 cell growth in a cell viability assay.

NCI-H226 = format: functional, cell-based;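 further: cell viability read-out used to gauge growth inhibition of the cells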
Description: SANGER: Inhibition of human NCI-H226 cell growth in a cell viability assay.

NCI-H23 = format: functional, cell-based;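 further: cell viability assay measuring growth inhibition of NCI-H23 cells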
Description: SANGER: Inhibition of human NCI-H23 cell growth in a cell viability assay.

NCI-H510A = format: functional, cell-based;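 further: growth inhibition of NCI-H510A cells, read out with a cell viability assay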
Description: SANGER: Inhibition of human NCI-H510A cell growth in a cell viability assay.

SNU1 = format: functional, cell-based;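 further: growth inhibition of human NCI-SNU-1 cells, measured with a cell viability assay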
Description: SANGER: Inhibition of human NCI-SNU-1 cell growth in a cell viability assay.

NEC8 = format: functional, cell-based;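 further: growth inhibition of human NEC8 cells, read out by a cell viability assay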
Description: SANGER: Inhibition of human NEC8 cell growth in a cell viability assay.

NH-12 = format: functional, cell-based;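 further: growth inhibition of NH-12 cells, read out with a cell viability assay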
Description: SANGER: Inhibition of human NH-12 cell growth in a cell viability assay.

NOS-1 = format: functional, cell-based;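 further: growth inhibition of the human NOS-1 cell line, read out with a cell viability assay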
Description: SANGER: Inhibition of human NOS-1 cell growth in a cell viability assay.

NTERA-2-cl-D1 = format: functional, cell-based;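 further: inhibition of cell growth, measured with a cell viability assay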
Description: SANGER: Inhibition of human NTERA-S-cl-D1 cell growth in a cell viability assay.

OCUB-M = format: functional, cell-based;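 further: growth inhibition of the cancer cell line, read out through a cell viability assay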
Description: SANGER: Inhibition of human OCUB-M cell growth in a cell viability assay.

RH-1 = format: functional, cell-based;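 further: growth inhibition of human RH-1 cells, read out with a cell viability assay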
Description: SANGER: Inhibition of human RH-1 cell growth in a cell viability assay.

SCC-15 = format: functional, cell-based;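 further: growth inhibition of SCC-15 cells, read out with a cell viability assay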
Description: SANGER: Inhibition of human SCC-15 cell growth in a cell viability assay.

SNB-75 = format: functional, cell-based;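 further: cell viability assay measuring growth inhibition of human SNB-75 cells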
Description: SANGER: Inhibition of human SNB75 cell growth in a cell viability assay.

SW684 = format: functional, cell-based;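 further: growth inhibition of human SW684 cells, measured by a cell viability assay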
Description: SANGER: Inhibition of human SW684 cell growth in a cell viability assay.

SW 954 = format: functional, cell-based;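 further: growth inhibition of SW954 human cancer cells, read out as cell viability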
Description: SANGER: Inhibition of human SW954 cell growth in a cell viability assay.

SW982 = format: functional, cell-based;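 further: growth inhibition of SW982 cells, read out with a cell viability assay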
Description: SANGER: Inhibition of human SW982 cell growth in a cell viability assay.

TE-1 = format: functional, cell-based
Description: SANGER: Inhibition of human TE-1 cell growth in a cell viability assay.

8-MG-BA = format: functional, cell-based;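 further: growth inhibition of 8-MG-BA cells, read out with a cell viability assay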
Description: SANGER: Inhibition of human 8-MG-BA cell growth in a cell viability assay.

ALL-PO = format: functional, cell-based;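 further: growth inhibition of ALL-PO cells, read out by a cell viability assay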
Description: SANGER: Inhibition of human ALL-PO cell growth in a cell viability assay.

AM-38 = format: functional, cell-based;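 further: growth inhibition of AM-38 cells of human origin, read out by a cell viability assay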
Description: SANGER: Inhibition of human AM-38 cell growth in a cell viability assay.

TE-11 = format: functional, cell-based;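 further: growth inhibition of human TE-11 cells, read out by a cell viability assay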
Description: SANGER: Inhibition of human TE-11 cell growth in a cell viability assay.

TE-12 = format: functional, cell-based;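 further: growth inhibition of TE-12 cells, read out by a cell viability assay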
Description: SANGER: Inhibition of human TE-12 cell growth in a cell viability assay.

TE-9 = format: functional, cell-based;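 further: cell growth inhibition, measured with a cell viability readout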
Description: SANGER: Inhibition of human TE-9 cell growth in a cell viability assay.

TK-10 = format: functional, cell-based;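 further: growth inhibition of TK-10 cells, read out in a cell viability assay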
Description: SANGER: Inhibition of human TK10 cell growth in a cell viability assay.

U-266 = format: functional, cell-based
Description: SANGER: Inhibition of human U-266 cell growth in a cell viability assay.

U-87 MG = format: functional, cell-based, U-87MG ATCC
Description: SANGER: Inhibition of human U-87-MG cell growth in a cell viability assay.

UACC-257 = format: functional, cell-based
Description: SANGER: Inhibition of human UACC-257 cell growth in a cell viability assay.

no-11 = format: functional, cell-based
Description: SANGER: Inhibition of human no-11 cell growth in a cell viability assay.

CAS-1 = format: functional, cell-based
Description: SANGER: Inhibition of human CAS-1 cell growth in a cell viability assay.

CGTH-W-1 = format: functional, cell-based
Description: SANGER: Inhibition of human CGTH-W-1 cell growth in a cell viability assay.

COLO-684 = format: functional, cell-based
Description: SANGER: Inhibition of human COLO-684 cell growth in a cell viability assay.

`Cc1n[nH]c2ccc(-c3cncc(OC[C@@H](N)Cc4c[nH]c5ccccc45)c3)cc12` [A-443654] gave a pIC50 (COLO-824) of less than 5.99, a pIC50 (CP66-MEL) of 6.34 and a pIC50 (CTV-1) of 6.49. It also gave a pIC50 (CW-2) of less than 5.99, a pIC50 (D283 Med) of less than 5.99 and a pIC50 (DB) of 6.43. For the same molecule, the pIC50 (DEL) was 6.64, the pIC50 (DMS-79) was 6.12 and the pIC50 (GAK) was less than 5.99. The pIC50 (GI-ME-N) was 6.56, the pIC50 (HEL) was 6.37 and the pIC50 (HH) was 6.65. It also gave a pIC50 (KALS-1) of 6.69, a pIC50 (KINGS-1) of 6.53 and a pIC50 (KLE) of 6.65. It also gave a pIC50 (KNS-42) of 6.61, a pIC50 (KP-N-YS) of less than 5.99 and a pIC50 (KU812 cell line) of 7.02. The pIC50 (KURAMOCHI) was 6.61, the pIC50 (LC-2-ad) was 7.65 and the pIC50 (LOX IMVI) was 6.10. The pIC50 (LU-139) was 6.43, the pIC50 (Lu-65) was less than 5.99 and the pIC50 (MEG-01) was 6.09. For the same molecule, the pIC50 (MFM-223) was less than 5.99, the pIC50 (MN-60) was 6.31 and the pIC50 (MPP-89) was 6.31. For the same molecule, the pIC50 (MS-1) was less than 5.99, the pIC50 (MSTO-211H) was less than 5.99 and the pIC50 (MZ1-PC) was 7.10. The pIC50 (Mo) was less than 5.99, the pIC50 (NB10) was less than 5.99 and the pIC50 (NB5) was 6.18. It also gave a pIC50 (NCI-H1092) of 6.03, a pIC50 (NCI-H1648) of 6.74 and a pIC50 (NCI-H1770) of less than 5.99. For the same molecule, the pIC50 (NCI-H226) was less than 5.99, the pIC50 (NCI-H23) was less than 5.99 and the pIC50 (NCI-H510A) was 6.64. It also gave a pIC50 (SNU1) of 6.40, a pIC50 (NEC8) of less than 5.99 and a pIC50 (NH-12) of less than 5.99. It also gave a pIC50 (NOS-1) of 7.03, a pIC50 (NTERA-2-cl-D1) of 7.56 and a pIC50 (OCUB-M) of 7.59. For the same molecule, the pIC50 (RH-1) was less than 5.99, the pIC50 (SCC-15) was less than 5.99 and the pIC50 (SNB-75) was 6.94. For the same molecule, the pIC50 (SW684) was less than 5.99, the pIC50 (SW 954) was 6.75 and the pIC50 (SW982) was 6.78. The pIC50 (TE-1) was 6.96, the pIC50 (8-MG-BA) was 6.79 and the pIC50 (ALL-PO) was 6.10. It also gave a pIC50 (AM-38) of less than 5.99, a pIC50 (TE-11) of 6.89 and a pIC50 (TE-12) of 6.71. For the same molecule, the pIC50 (TE-9) was 6.41, the pIC50 (TK-10) was 6.65 and the pIC50 (U-266) was less than 5.99. It also gave a pIC50 (U-87 MG) of less than 5.99, a pIC50 (UACC-257) of less than 5.99 and a pIC50 (no-11) of 6.89. It also gave a pIC50 (CAS-1) of less than 5.99, a pIC50 (CGTH-W-1) of 6.61 and a pIC50 (COLO-684) of 7.10.
For `CC(O)(CS(=O)(=O)c1ccc(F)cc1)C(=O)Nc1ccc(C#N)c(C(F)(F)F)c1` (configuration not stated) [BICALUTAMIDE], the pIC50 (COLO-824) was less than 5.99, the pIC50 (CP66-MEL) was less than 5.99 and the pIC50 (CTV-1) was less than 5.99. It also gave a pIC50 (CW-2) of less than 5.99, a pIC50 (D283 Med) of less than 5.99 and a pIC50 (DB) of less than 5.99. For the same molecule, the pIC50 (DEL) was less than 5.99, the pIC50 (DMS-79) was less than 5.99 and the pIC50 (GAK) was less than 5.99. For the same molecule, the pIC50 (GI-ME-N) was less than 5.99, the pIC50 (HEL) was less than 5.99 and the pIC50 (HH) was less than 5.99. It also gave a pIC50 (KALS-1) of less than 5.99, a pIC50 (KINGS-1) of less than 5.99 and a pIC50 (KLE) of less than 5.99. The pIC50 (KNS-42) was less than 5.99, the pIC50 (KP-N-YS) was less than 5.99 and the pIC50 (KU812 cell line) was less than 5.99. It also gave a pIC50 (KURAMOCHI) of less than 5.99, a pIC50 (LC-2-ad) of less than 5.99 and a pIC50 (LOX IMVI) of less than 5.99. It also gave a pIC50 (LU-139) of less than 5.99, a pIC50 (Lu-65) of less than 5.99 and a pIC50 (MEG-01) of less than 5.99. The pIC50 (MFM-223) was less than 5.99, the pIC50 (MN-60) was less than 5.99 and the pIC50 (MPP-89) was less than 5.99. The pIC50 (MS-1) was less than 5.99, the pIC50 (MSTO-211H) was less than 5.99 and the pIC50 (MZ1-PC) was less than 5.99. The pIC50 (Mo) was less than 5.99, the pIC50 (NB10) was less than 5.99 and the pIC50 (NB5) was less than 5.99. It also gave a pIC50 (NCI-H1092) of less than 5.99, a pIC50 (NCI-H1648) of less than 5.99 and a pIC50 (NCI-H1770) of less than 5.99. The pIC50 (NCI-H226) was less than 5.99, the pIC50 (NCI-H23) was less than 5.99 and the pIC50 (NCI-H510A) was less than 5.99. For the same molecule, the pIC50 (SNU1) was less than 5.99, the pIC50 (NEC8) was less than 5.99 and the pIC50 (NH-12) was less than 5.99. For the same molecule, the pIC50 (NOS-1) was less than 5.99, the pIC50 (NTERA-2-cl-D1) was less than 5.99 and the pIC50 (OCUB-M) was less than 5.99. It also gave a pIC50 (RH-1) of less than 5.99, a pIC50 (SCC-15) of less than 5.99 and a pIC50 (SNB-75) of less than 5.99. The pIC50 (SW684) was less than 5.99, the pIC50 (SW 954) was less than 5.99 and the pIC50 (SW982) was less than 5.99. For the same molecule, the pIC50 (TE-1) was less than 5.99, the pIC50 (8-MG-BA) was less than 5.99 and the pIC50 (ALL-PO) was less than 5.99. The pIC50 (AM-38) was less than 5.99, the pIC50 (TE-11) was less than 5.99 and the pIC50 (TE-12) was less than 5.99. For the same molecule, the pIC50 (TE-9) was less than 5.99, the pIC50 (TK-10) was less than 5.99 and the pIC50 (U-266) was less than 5.99. The pIC50 (U-87 MG) was less than 5.99, the pIC50 (UACC-257) was less than 5.99 and the pIC50 (no-11) was less than 5.99. For the same molecule, the pIC50 (CAS-1) was less than 5.99, the pIC50 (CGTH-W-1) was less than 5.99 and the pIC50 (COLO-684) was less than 5.99.
